Test system: V79
Assay: Cytotoxicity against Chinese hamster lung fibroblasts (V79 cells) was determined by a clonogenic assay and colonies containing >50 cells were counted and surviving fractions (SF) calculated after 2 h incubation at 50 uM of prodrug
Assay type: functional, Cricetulus griseus

Work on O=C(O)Cc1c[nH]c2cc(Cl)ccc12 yielded a Surviving fraction of 0.00085.

Test system: V79
Assay: Cytotoxicity against Chinese hamster lung fibroblasts (V79 cells) was determined by a clonogenic assay (colonies containing >50 cells were counted and surviving fractions (SF) calculated after 2 hr incubation)
Assay type: functional, Cricetulus griseus

Cc1ccc(F)c2[nH]cc(CC(=O)O)c12 and Cc1cc(F)c2[nH]cc(CC(=O)O)c2c1 are the same in Surviving fraction: 1 for the first, 1 for the second.

Cn1cc(CC(=O)O)c2ccc(Cl)cc21 and Cn1cc(CC(=O)O)c2cc(F)ccc21 are the same in Surviving fraction: 1 for the first, 1 for the second.

O=C(O)Cc1c[nH]c2ccc(-c3ccccc3)cc12 and O=C(O)Cc1c[nH]c2ccc(-c3ccc(Cl)cc3)cc12 are the same in Surviving fraction: 1 for the first, 1 for the second.

Compared with O=C(O)Cc1c[nH]c2ccc(OC(F)(F)F)cc12, COc1ccc2[nH]cc(CC(=O)O)c2c1 is lower in Surviving fraction: 1 for the first, 0.2 for the second.

First: Cc1[nH]c2ccc(F)cc2c1CC(=O)O
Second: COc1ccc2[nH]c(C)c(CC(=O)O)c2c1 [DESCHLOROBENZOYL INDOMETHACIN]
The Surviving fraction of the first is higher: 1 for the first, 0.04 for the second.

First: O=C(O)Cc1c[nH]c2cccc(Cl)c12
Second: O=C(O)Cc1c[nH]c2cccc(F)c12
The Surviving fraction of the first is higher: 1 for the first, 9e-05 for the second.

Going from O=C(O)Cc1c[nH]c2ccc(I)cc12 to O=C(O)Cc1c[nH]c2ccc(Cl)cc12, the Surviving fraction falls from 1 to 0.003.

Going from Cc1ccc2[nH]cc(CC(=O)O)c2c1 to O=C(O)Cc1c[nH]c2cc(F)ccc12, the Surviving fraction falls from 1 to 0.01.

Compared with Cc1[nH]c2ccccc2c1CC(=O)O, O=C(O)Cc1c[nH]c2ccccc12 [INDOLE-3-ACETIC ACID] is higher in Surviving fraction: 0.004 for the first, 0.01 for the second.

O=C(O)Cc1c[nH]c2cc(Cl)cc(Cl)c12 and O=C(O)Cc1c[nH]c2c(F)cc(Cl)cc12 are the same in Surviving fraction: 1 for the first, 1 for the second.

Compared with O=C(O)Cc1c[nH]c2c(Cl)cccc12, Cn1cc(CC(=O)O)c2ccccc21 is higher in Surviving fraction: 4e-05 for the first, 0.01 for the second.

For O=C(O)Cc1c[nH]c2ccc(F)cc12, the Surviving fraction was under 1e-05.
In the case of O=C(O)Cc1c[nH]c2cc(Cl)ccc12, the Surviving fraction is reported as under 1e-05.

Test system: not listed separately
Assay: Rate constant for oxidation by HRP (horseradish peroxidase) was determined

Compared with O=C(O)Cc1c[nH]c2ccc(-c3ccc(Cl)cc3)cc12, COc1ccc2[nH]c(C)c(CC(=O)O)c2c1 [DESCHLOROBENZOYL INDOMETHACIN] is higher in Rate constant (k): 103 Ie3 M-1 s-1 for the first, 1710 Ie3 M-1 s-1 for the second.

With Cc1[nH]c2ccccc2c1CC(=O)O the Rate constant (k) was 435 Ie3 M-1 s-1.
